Data from US20100189766A1, “SUBSTANCE DELIVERING PUNCTUM IMPLANTS AND METHODS” (QLT PLUG DELIVERY, INC., priority 2008, published 2010).

Assay: Diffusion or passage of latanoprost from the substance insert through the wall of the punctum plug
Type: physicochemical
Source text: In applications where it is desired to deliver the therapeutic or diagnostic substance to or through the cornea or the eye it is desirable to cause the substance to become dissolved in the tear film TF which covers the cornea of the eye, while deterring or minimizing untoward loss of substance through other routes, such as through direct absorption into tissues surrounding the punctum and/or canaliculus LC in which the device is implanted (referred to generally herein as “pericanalicular tissue absorption”) or by drainage through the naso-lacrimal system into the nose. One way to limit or deter such loss of substance is to render all or part of the punctum plug 12, 12a impervious to the substance so that the substance cannot diffuse or pass through the wall of the punctum plug 12, 12a. This may be particularly important in embodiments where the punctum plug 12, 12a is formed of silicone or other material through which the substance can pass. […] The substance insert receiving portion 20b may have the same configuration as either of those substance insert receiving portions 20, 20a described above. However, in this embodiment, a coating 60 has been applied to the outer surface of the side wall of the substance insert receiving portion 20b. Such coating may also be applied to other portions of the punctum plug 12b or to the entire punctum plug 12b. […]

loss by diffusion or passage through the punctum plug (substance-impervious coating 60 applied to outer surface of the substance insert receiving portion and/or other portions of the punctum plug): substantially prevented
SMILES: CC(C)OC(=O)CCC/C=C\C[C@@H]1[C@@H](CC[C@@H](O)CCc2ccccc2)[C@H](O)C[C@@H]1O [latanoprost]
diffusion or passage through the wall of the punctum plug (punctum plug formed of silicone, no coating, substance insert contains latanoprost): some of the latanoprost will diffuse or pass through the wall of the punctum plug
